From patent US9597361B2, “Treating a bacterial skin infection with a whole, leech saliva extract” (priority 2012, dated 2017)

Tests used:
[1] = test system: Pseudomonas aeruginosa ATCC27853; assay: Kirby-Bauer disc diffusion; settings: ATCC27853, read-out: Zone of inhibition, P. auroginosa
[2] = test system: Escherichia coli ATCC35218; assay: Kirby-Bauer disc diffusion; settings: ATCC35218, read-out: Zone of inhibition, E. coli
[3] = test system: Bacillus cereus ATCC25923; assay: Kirby-Bauer disc diffusion; settings: ATCC25923, read-out: Zone of inhibition, B. cereus
[4] = test system: Staphylococcus aureus ATCC25923; assay: Kirby-Bauer disc diffusion; settings: ATCC25923, read-out: Zone of inhibition, S. aureus
[5] = test system: Salmonella typhi; assay: Kirby-Bauer disc diffusion; format: cell-based; settings: Salmonella enterica, read-out: Zone of inhibition, Sal. typhi
[6] = test system: alloxan-induced diabetic rats; assay: Antihyperglycemic activity: fasting blood glucose in alloxan-induced diabetic rats
Method: Male rats of Sprague Dawley strain (SD) (from Mikro Makmur Enterprise, Kuantan, Pahang Darul Makmur, Malaysia) were grouped randomly and kept at an animal post-graduate laboratory in Kulliyyah of Pharmacy, International Islamic University Malaysia (IIUM), maintained with an air conditioning system and exhaust fans. The rats were under a 12 h/12 h dark and light cycle at room temperature (25° C.). They were acclimatized to these conditions for one week prior to the experiment and housed in polypropylene cages lined with pine wood husk changed every two days. The rats were given free access to tap water and a commercial dry pellet diet, Gold Coin. The experimental procedures were conducted according to Principles and Guide to Ethical Use of Laboratory Animals approved by Ministry of Health Malaysia (Sinniah & Hussein, 2000). […]
After 24 hours of alloxanisation, the fasting blood glucose concentration (FBG) was measured every morning to check the diabetic state of the injected rats. […]
Fasting blood glucose (FBG) at two-hour intervals was recorded during the experiment period for all the experimental animals. The percentage decrease in fasting blood glucose concentration was calculated from the following equation (Madubunyi, Onoja, & Asuzu, 2010):

| Molecule | zone of inhibition at 5 µg/disc [1] [mm] | zone of inhibition at 5 µg/disc [2] [mm] | zone of inhibition at 5 µg/disc [3] [mm] | zone of inhibition at 5 µg/disc [4] [mm] | zone of inhibition at 5 µg/disc [5] [mm] | fasting blood glucose (FBG) ([6]; after two hours of injection (LSE p<0.05; insulin p<0.001)) | fasting blood glucose (FBG) ([6]; insulin 10 units/kg b.w s.c., after 8 hours of treatment) |
| --- | --- | --- | --- | --- | --- | --- | --- |
| O=C(O)c1cn(C2CC2)c2cc(N3CCNCC3)c(F)cc2c1=O [Cipro, ciprofloxacin] | 24 | 26 | 28 | 24 | 35 |  |  |
| insulin: insulin from bovine pancreas (≧27 units/mg), suspension in distilled water |  |  |  |  |  | sharp significant decrease | returned to the diabetic state |
